For series [1], the system named is Bordetella bronchiseptica. The series can be described thus: Comparative in vitro antibacterial activity with trimethoprim against Bordetella bronchiseptica CN385. The format is functional.
Series [2] concerns Citrobacter freundii. In words: Comparative in vitro antibacterial activity of compound with trimethoprim against Citrobacter freundii 2200/77. The format is functional.
The target in series [3] is T1, Dihydrofolate reductase (Rattus norvegicus, UniProt Q920D2).
T1 sequence (Q920D2 whole entry): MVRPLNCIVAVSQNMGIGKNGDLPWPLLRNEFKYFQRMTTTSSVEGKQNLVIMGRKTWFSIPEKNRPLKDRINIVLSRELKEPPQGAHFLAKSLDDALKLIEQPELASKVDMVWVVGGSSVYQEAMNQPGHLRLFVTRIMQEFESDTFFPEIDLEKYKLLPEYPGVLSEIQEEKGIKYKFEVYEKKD
The series can be described thus: Inhibitory activity against dihydrofolate reductase in rat liver. The following applies: read-out: I50.

Series [4] has as its target Dihydrofolate reductase (Neisseria gonorrhoeae, UniProt P04174). In words: Inhibitory activity against Dihydrofolate reductase in Neisseria gonorrhoeae. The following applies: read-out: I50.
A further series relates to Escherichia coli. The series can be described thus: Comparative in vitro antibacterial activity with trimethoprim against Escherichia coli CN314. The format is functional.
A further series relates to Klebsiella aerogenes. The series can be described thus: Comparative in vitro antibacterial activity with trimethoprim against Enterobacter aerogenes 2200/86. The format is functional.
Series [5] deals with Klebsiella pneumoniae. In words: Comparative in vitro antibacterial activity of compound with trimethoprim against Klebsiella pneumoniae CN3632. The format is functional.
Series [6] deals with Mycolicibacterium smegmatis. In words: Comparative in vitro antibacterial activity with trimethoprim against Mycobacterium smegmatis S 3254. The format is functional.
A further series relates to Proteus mirabilis. In words: Comparative in vitro antibacterial activity with trimethoprim against Proteus mirabilis S2409. The format is functional.
Another series has as its system Proteus vulgaris. The series can be described thus: Comparative in vitro antibacterial activity with trimethoprim against Proteus vulgaris CN329. The format is functional.
A short description of series [7]: Comparative in vitro antibacterial activity with trimethoprim against Salmonella typhi CN512. The format is functional, salmonella typhosa.
The subject of the next series is Shigella flexneri. In words: Comparative in vitro antibacterial activity with trimethoprim against Shigella flexneri CN6007. The format is functional.
For another series, the system named is Serratia marcescens. The series can be described thus: Comparative in vitro antibacterial activity with trimethoprim against Serratia marcescens CN2398. The format is functional.
In another series the test system is Salmonella typhimurium. The series can be described thus: Comparative in vitro antibacterial activity with trimethoprim against Salmonella Typhimurium S 8587. The format is functional, Salmonella enterica subsp. enterica serovar Typhimurium. The following applies: Salmonella enterica.
A further series relates to Streptococcus pyogenes. In words: Comparative in vitro antibacterial activity of compound with trimethoprim against Streptococcus pyogenes CN10. The format is functional.
The test system of a further series is Staphylococcus aureus. In words: Comparative in vitro antibacterial activity with trimethoprim against Staphylococcus aureus CN491. The format is functional.
The next series relates to Enterococcus faecalis. The series can be described thus: Comparative in vitro antibacterial activity with trimethoprim against Streptococcus faecalis CN478. The format is functional.
For the next series, the system named is Streptococcus agalactiae. In words: Comparative in vitro antibacterial activity with trimethoprim against Streptococcus agalactiae CN1143. The format is functional.
The subject of another series is Vibrio cholerae. The series can be described thus: Comparative in vitro antibacterial activity with trimethoprim against Vibrio cholerae ATCC 14035. The format is functional.
In the next series the test system is Pasteurella multocida. In words: Comparative in vitro antibacterial activity with trimethoprim against Pasteurella multocida ATCC 6587. The format is functional.
Series [8] relates to Citrobacter freundii. The series can be described thus: Comparative in vitro antibacterial activity with trimethoprim against Citrobacter freundii 2200/77. The format is functional.
For series [9], the system named is Klebsiella pneumoniae. In words: Comparative in vitro antibacterial activity with trimethoprim against Klebsiella pneumoniae CN3632. The format is functional.
The nature of series [10]: Dissociation constant at 20 degree C. The format is physicochemical.

Each structure is given as a SMILES string. ≈ marks a conversion by molar mass, not a printed value.

Chain of Dihydrofolate reductase (Neisseria gonorrhoeae, UniProt P04174) (P04174 whole entry): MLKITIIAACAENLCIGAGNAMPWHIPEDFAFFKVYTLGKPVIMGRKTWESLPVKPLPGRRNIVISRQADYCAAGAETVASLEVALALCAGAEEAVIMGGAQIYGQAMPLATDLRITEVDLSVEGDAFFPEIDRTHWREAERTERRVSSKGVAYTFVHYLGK

Usually MIC stands for the least concentration at which growth counts as inhibited. High values mean a need for much substance, low ones inhibition by little substance. For `COCCOc1cc(Cc2cnc(N)nc2N)cc2c1NCCC2`, the MIC turned out to be 30 µg/mL (≈ 91.1 µM) in [1]; 100 µg/mL (≈ 304 µM) in the series on Citrobacter freundii [2]; 100 µg/mL (≈ 304 µM) in the series with Escherichia coli; 100 µg/mL (≈ 304 µM) in the series with Klebsiella aerogenes; 100 µg/mL (≈ 304 µM) in the series with Klebsiella pneumoniae [5]; 3 µg/mL (≈ 9.11 µM) in [6]. Also, the MIC with Proteus mirabilis was above 30 µg/mL; against Proteus vulgaris it was 100 µg/mL (≈ 304 µM); in [7], 100 µg/mL (≈ 304 µM); in the series with Shigella flexneri, 100 µg/mL (≈ 304 µM); against Serratia marcescens it was above 10 µg/mL; against Salmonella typhimurium, 100 µg/mL (≈ 304 µM). The minimal inhibitory concentration (MIC) was found to be 3 µg/mL (≈ 9.11 µM) against Streptococcus pyogenes; 10 µg/mL (≈ 30.4 µM) with Staphylococcus aureus; 3 µg/mL (≈ 9.11 µM) in the series on Enterococcus faecalis; 10 µg/mL (≈ 30.4 µM) against Streptococcus agalactiae; 10 µg/mL (≈ 30.4 µM) in the series on Vibrio cholerae; 30 µg/mL (≈ 91.1 µM) with Pasteurella multocida. Further, the IC50 was determined as 170 µM on Dihydrofolate reductase [3] and 0.53 µM at Dihydrofolate reductase [4].

In the case of `CC1CC(C)c2cc(Cc3cnc(N)nc3N)cc(Cl)c2N1` (stereo unspecified), the MIC in [1] came out at 100 µg/mL (≈ 315 µM); against Citrobacter freundii [8], 100 µg/mL (≈ 315 µM); against Escherichia coli, 100 µg/mL (≈ 315 µM); against Klebsiella aerogenes, 100 µg/mL (≈ 315 µM); in [6] it was 10 µg/mL (≈ 31.5 µM); in the series with Proteus mirabilis, 30 µg/mL (≈ 94.4 µM). Further, the minimum inhibitory concentration (MIC) in the series on Proteus vulgaris is 100 µg/mL (≈ 315 µM); in series [7], 100 µg/mL (≈ 315 µM); against Shigella flexneri, 300 µg/mL (≈ 944 µM); in the series on Serratia marcescens, above 10 µg/mL; in the series on Salmonella typhimurium, 100 µg/mL (≈ 315 µM); against Streptococcus pyogenes, 3 µg/mL (≈ 9.44 µM). The MIC against Staphylococcus aureus is 3 µg/mL (≈ 9.44 µM); in the series on Enterococcus faecalis, 3 µg/mL (≈ 9.44 µM); against Streptococcus agalactiae it was 3 µg/mL (≈ 9.44 µM); against Vibrio cholerae, 3 µg/mL (≈ 9.44 µM); in the series with Pasteurella multocida it was 30 µg/mL (≈ 94.4 µM); in the series on Klebsiella pneumoniae [9] it was 100 µg/mL (≈ 315 µM). Also, the figures for the IC50 on Dihydrofolate reductase [3] and on Dihydrofolate reductase [4] were 41 µM and 0.24 µM, respectively.

For the compound `COc1cc(Cc2cnc(N)nc2N)cc2c1N(CCO)CCC2C` (stereo unspecified), the MIC in [1] came out at 10 µg/mL (≈ 29.1 µM); against Citrobacter freundii [8] it was 3 µg/mL (≈ 8.74 µM); against Escherichia coli, 30 µg/mL (≈ 87.4 µM); in the series on Klebsiella aerogenes it was 30 µg/mL (≈ 87.4 µM); in series [6], 3 µg/mL (≈ 8.74 µM); with Proteus mirabilis it was 10 µg/mL (≈ 29.1 µM). Moreover, the MIC in the series on Proteus vulgaris stood at 10 µg/mL (≈ 29.1 µM); in series [7], 30 µg/mL (≈ 87.4 µM); with Shigella flexneri, 10 µg/mL (≈ 29.1 µM); against Serratia marcescens, 10 µg/mL (≈ 29.1 µM); in the series with Salmonella typhimurium it was 10 µg/mL (≈ 29.1 µM); against Streptococcus pyogenes it was 3 µg/mL (≈ 8.74 µM). Besides, the MIC amounted to 1 µg/mL (≈ 2.91 µM) with Staphylococcus aureus; 0.3 µg/mL (≈ 0.874 µM) against Enterococcus faecalis; 1 µg/mL (≈ 2.91 µM) against Streptococcus agalactiae; 3 µg/mL (≈ 8.74 µM) in the series with Vibrio cholerae; 10 µg/mL (≈ 29.1 µM) in the series on Pasteurella multocida; 10 µg/mL (≈ 29.1 µM) in the series with Klebsiella pneumoniae [9]. The IC50 on Dihydrofolate reductase [3] is 142 µM; at Dihydrofolate reductase [4] it was 0.61 µM.

The pKa is the negative logarithm of the acid dissociation constant. A lower pKa goes with a stronger acid or weaker base. Take `COc1cccc2c1N(C)CCC2C` (stereo unspecified): the pKa in series [10] turned out to be 6.51.

With `COc1cc(Cc2cnc(N)nc2N)cc2c1NCCC2`, the minimal inhibitory concentration (MIC) was 1 µg/mL (≈ 3.5 µM) in series [1]; 10 µg/mL (≈ 35 µM) against Citrobacter freundii [8]; 10 µg/mL (≈ 35 µM) against Escherichia coli; 3 µg/mL (≈ 10.5 µM) against Klebsiella aerogenes; 1 µg/mL (≈ 3.5 µM) in series [6]; 3 µg/mL (≈ 10.5 µM) against Proteus mirabilis. The minimal inhibitory concentration (MIC) against Proteus vulgaris was 3 µg/mL (≈ 10.5 µM); in series [7], 3 µg/mL (≈ 10.5 µM); with Shigella flexneri, 10 µg/mL (≈ 35 µM); in the series with Serratia marcescens it was 3 µg/mL (≈ 10.5 µM); in the series with Salmonella typhimurium, 3 µg/mL (≈ 10.5 µM); in the series with Streptococcus pyogenes, 3 µg/mL (≈ 10.5 µM). The MIC in the series on Staphylococcus aureus was 3 µg/mL (≈ 10.5 µM); against Enterococcus faecalis, 3 µg/mL (≈ 10.5 µM); against Streptococcus agalactiae, 3 µg/mL (≈ 10.5 µM); against Vibrio cholerae it was 1 µg/mL (≈ 3.5 µM); in the series on Pasteurella multocida it was 3 µg/mL (≈ 10.5 µM); in the series on Klebsiella pneumoniae [9], 3 µg/mL (≈ 10.5 µM). The IC50 on Dihydrofolate reductase [3] amounted to 76 µM; on Dihydrofolate reductase [4], 0.51 µM.

For the origin of these results see ChEMBL document CHEMBL1124638, “2,4-Diamino-5-benzylpyrimidines and analogues as antibacterial agents. 10. 2,4-Diamino-5-(6-quinolylmethyl)- and -[(tetrahydro-6-quinolyl)methyl]pyrimidine derivatives. Further specificity studies” (J Med Chem, 1989).
